Target: T1, Full-length USP19 (Homo sapiens, UniProt O94966)
T1 construct: Full-length USP19 was purchased from Boston Biochem (E-576); purchased Boston Biochem E-576
T1 sequence (O94966 1-1318): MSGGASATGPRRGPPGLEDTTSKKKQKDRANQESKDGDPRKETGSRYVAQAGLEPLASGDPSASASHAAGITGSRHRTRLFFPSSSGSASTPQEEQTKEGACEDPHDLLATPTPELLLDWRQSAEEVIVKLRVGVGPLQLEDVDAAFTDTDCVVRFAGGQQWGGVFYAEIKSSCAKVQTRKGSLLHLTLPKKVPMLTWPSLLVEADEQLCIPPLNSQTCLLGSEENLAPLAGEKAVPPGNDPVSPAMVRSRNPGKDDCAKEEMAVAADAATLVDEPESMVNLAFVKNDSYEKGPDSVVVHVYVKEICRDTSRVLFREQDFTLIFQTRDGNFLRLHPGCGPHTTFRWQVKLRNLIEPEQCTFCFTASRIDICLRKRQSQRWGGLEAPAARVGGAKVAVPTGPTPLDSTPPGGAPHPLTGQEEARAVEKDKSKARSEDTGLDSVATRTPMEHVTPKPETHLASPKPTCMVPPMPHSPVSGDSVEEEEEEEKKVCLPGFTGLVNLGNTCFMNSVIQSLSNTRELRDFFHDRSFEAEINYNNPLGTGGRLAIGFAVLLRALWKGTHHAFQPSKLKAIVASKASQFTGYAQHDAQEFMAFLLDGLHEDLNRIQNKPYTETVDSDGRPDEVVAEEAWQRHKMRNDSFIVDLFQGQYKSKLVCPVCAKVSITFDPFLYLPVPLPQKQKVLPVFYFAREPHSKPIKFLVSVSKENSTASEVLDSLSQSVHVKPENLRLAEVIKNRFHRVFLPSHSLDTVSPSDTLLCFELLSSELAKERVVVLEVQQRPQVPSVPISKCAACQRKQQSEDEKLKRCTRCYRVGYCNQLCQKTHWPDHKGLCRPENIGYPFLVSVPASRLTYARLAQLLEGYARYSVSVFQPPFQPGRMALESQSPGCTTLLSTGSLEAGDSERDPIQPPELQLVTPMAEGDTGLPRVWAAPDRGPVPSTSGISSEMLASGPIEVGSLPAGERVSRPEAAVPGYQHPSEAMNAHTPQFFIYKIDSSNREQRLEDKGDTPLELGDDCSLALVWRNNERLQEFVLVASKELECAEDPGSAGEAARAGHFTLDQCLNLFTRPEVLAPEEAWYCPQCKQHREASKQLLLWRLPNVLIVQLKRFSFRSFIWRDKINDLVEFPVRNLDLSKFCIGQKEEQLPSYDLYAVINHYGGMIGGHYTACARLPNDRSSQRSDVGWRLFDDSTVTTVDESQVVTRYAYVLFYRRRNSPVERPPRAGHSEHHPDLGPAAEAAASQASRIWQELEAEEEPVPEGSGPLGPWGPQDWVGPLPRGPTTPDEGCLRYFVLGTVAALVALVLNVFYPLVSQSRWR
Experiment: USP19 fluorescence polarisation (FP) assay, Ubiquitin-Lys-TAMRA substrate
Assay type: biochemical
Conditions: average of at least two duplicate experiments
Outline: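 Fluorescence polarisation (excitation 530 nm, parallel and perpendicular emission at 575 nm) was recorded every 15 min for 90 min after adding the ubiquitin-Lys-TAMRA isopeptide (500 nM as dispensed). Beforehand, the full-length enzyme (2.5 nM as dispensed) sat 30 min at RT with compound diluted from 200 μM to 2 μM in HEPES pH 7.4 buffer with 150 mM NaCl, 5 mM DTT, 0.05% BSA and 0.05% CHAPS. Values normalised to uninhibited wells gave IC50s by non-linear fitting, each the mean of two or more duplicate runs.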

IC50 | SMILES
< 10 nM | CC(C)N[C@@H]1CCN(C(=O)N2CC[C@@H](Cn3cnc(-c4ccccc4)cc3=O)C3(CCCC3)C2)[C@H](c2cc(F)ccc2F)C1 [Example 160, 3-(((R)-7-((2S,4R)-2-(2,5-Difluorophenyl)-4-(isopropylamino)piperidine-1-carbonyl)-7-azaspiro[4.5]decan-10-yl)methyl)-6-phenylpyrimidin-4(3H)-one]
< 10 nM | CN[C@@H]1CCN(C(=O)N2CC[C@@H](Cn3ccc(-c4ccccc4OC)cc3=O)C3(CCCC3)C2)[C@H](c2ccccc2F)C1 [Example 118, 1-(((R)-7-((2S,4R)-2-(2-Fluorophenyl)-4-(methylamino)piperidine-1-carbonyl)-7-azaspiro[4.5]decan-10-yl)methyl)-4-(2-methoxyphenyl)pyridin-2(1H)-one]
< 10 nM | CN[C@@H]1CCN(C(=O)N2CC[C@@H](Cn3cnc(C(F)F)cc3=O)C3(CCCC3)C2)[C@H](c2ccc(F)cc2F)C1 [Example 130, 6-(Difluoromethyl)-3-(((R)-7-((2S,4R)-2-(2,4-difluorophenyl)-4-(methylamino)piperidine-1-carbonyl)-7-azaspiro[4.5]decan-10-yl)methyl)pyrimidin-4(3H)-one]
10 to 100 nM | CC1(C)CN(C(=O)N2CCNC[C@H]2c2ccccc2)CCC1Cn1ccc(-c2ccccc2)cc1=O (stereo partly drawn) [Example 20, 1-((3,3-Dimethyl-1-((R)-2-phenylpiperazine-1-carbonyl)piperidin-4-yl)methyl)-4-phenylpyridin-2(1H)-one]
< 10 nM | CN[C@@H]1CCN(C(=O)N2CC[C@@H](Cn3ccc(-c4ccccc4OC)cc3=O)C3(CCCC3)C2)[C@H](c2ccccc2)C1 [Example 53, 4-(2-Methoxyphenyl)-1-(((R)-7-((2S,4R)-4-(methylamino)-2-phenylpiperidine-1-carbonyl)-7-azaspiro[4.5]decan-10-yl)methyl)pyridin-2(1H)-one]
< 10 nM | O=C(N1CC[C@@H](Cn2cnc(-c3ccccc3)cc2=O)C2(CCCC2)C1)N1CC[C@@H](NCCO)C[C@H]1c1ccccc1 [Example 161, 3-(((R)-7-((2S,4R)-4-((2-Hydroxyethyl)amino)-2-phenylpiperidine-1-carbonyl)-7-azaspiro[4.5]decan-10-yl)methyl)-6-phenylpyrimidin-4(3H)-one]
100 to 1000 nM | CNC(=O)[C@@H]1CCN(C(=O)N2CC[C@@H](Cn3cnc(-c4ccccc4)cc3=O)C3(CCCC3)C2)[C@H](c2ccccc2)C1 [Example 176, (2S,4R)-N-Methyl-1-((R)-10-((6-oxo-4-phenylpyrimidin-1(6H)-yl)methyl)-7-azaspiro[4.5]decane-7-carbonyl)-2-phenylpiperidine-4-carboxamide]
10 to 100 nM | N[C@@H]1CCN(C(=O)N2CCC(Cn3ccncc3=O)C3(CCCC3)C2)[C@H](c2ccccc2)C1 (stereo partly drawn) [Example 31, 1-((7-((2S,4R)-4-Amino-2-phenylpiperidine-1-carbonyl)-7-azaspiro[4.5]decan-10-yl)methyl)pyrazin-2(1H)-one]
< 10 nM | CN[C@@H]1CCN(C(=O)N2CC[C@@H](Cn3cnc4ccc(F)cc4c3=O)C3(CCCC3)C2)[C@H](c2cc(F)cc(F)c2)C1 [Example 153, 3-(((R)-7-((2S,4R)-2-(3,5-Difluorophenyl)-4-(methylamino)piperidine-1-carbonyl)-7-azaspiro[4.5]decan-10-yl)methyl)-6-fluoroquinazolin-4(3H)-one]
< 10 nM | CN[C@@H]1CCN(C(=O)N2CC[C@@H](Cn3cnc(-c4ccccc4OC)cc3=O)C3(CCCC3)C2)[C@H](c2cccc(F)c2F)C1 [Example 149, 3-(((R)-7-((2S,4R)-2-(2,3-Difluorophenyl)-4-(methylamino)piperidine-1-carbonyl)-7-azaspiro[4.5]decan-10-yl)methyl)-6-(2-methoxyphenyl)pyrimidin-4(3H)-one]
< 10 nM | CN[C@@H]1CCN(C(=O)N2CCC(Cn3ccc(-c4ccccc4)cc3=O)CC2)[C@H](c2ccccc2)C1 [Example 47, 1-((1-((2S,4R)-4-(Methylamino)-2-phenylpiperidine-1-carbonyl)piperidin-4-yl)methyl)-4-phenylpyridin-2(1H)-one]
10 to 100 nM | Cc1ccn(CC2CCN(C(=O)N3CC[C@@H](N)C[C@H]3c3ccccc3)CC23CCCC3)c(=O)c1 (stereo partly drawn) [Example 39, 1-((7-((2S,4R)-4-Amino-2-phenylpiperidine-1-carbonyl)-7-azaspiro[4.5]decan-10-yl)methyl)-4-methylpyridin-2(1H)-one]
< 10 nM | N[C@@H]1CCN(C(=O)N2CC[C@@H](Cn3cnc(-c4ccccc4)cc3=O)C3(CCCC3)C2)[C@H](c2ccccc2)C1 [Example 25]
< 10 nM | CN[C@@H]1CCN(C(=O)N2CC[C@@H](CN3CCC(c4ccccc4)=CC3=O)C3(CCCC3)C2)[C@H](c2cc(F)ccc2F)C1 [Example 168, 1-(((R)-7-((2S,4R)-2-(2,5-Difluorophenyl)-4-(methylamino)piperidine-1-carbonyl)-7-azaspiro[4.5]decan-10-yl)methyl)-4-phenyl-5,6-dihydropyridin-2(1H)-one]
< 10 nM | CN[C@@H]1CCN(C(=O)N2CC[C@@H](Cn3cnc(-c4ccccc4OC)cc3=O)C3(CCCC3)C2)[C@H](c2cc(F)cc(F)c2)C1 [Example 124, 3-(((R)-7-((2S,4R)-2-(3,5-Difluorophenyl)-4-(methylamino)piperidine-1-carbonyl)-7-azaspiro[4.5]decan-10-yl)methyl)-6-(2-methoxyphenyl)pyrimidin-4(3H)-one]
< 10 nM | CN[C@@H]1CCN(C(=O)N2CC[C@@H](Cn3cnc(-c4ccccc4)cc3=O)C3(CCCC3)C2)[C@H](c2cccc(F)c2F)C1 [Example 132, 3-(((R)-7-((2S,4R)-2-(2,3-Difluorophenyl)-4-(methylamino)piperidine-1-carbonyl)-7-azaspiro[4.5]decan-10-yl)methyl)-6-phenylpyrimidin-4(3H)-one]
< 10 nM | N[C@@H]1CCN(C(=O)N2CC[C@@H](Cn3cnc(-c4ccccc4)cc3=O)C3(CCCC3)C2)[C@H](c2cccc(F)c2)C1 [Example 66, 3-(((R)-7-((2,4R)-4-Amino-2-(3-fluorophenyl)piperidine-1-carbonyl)-7-azaspiro[4.5]decan-10-yl)methyl)-6-phenylpyrimidin-4(3H)-one]
< 10 nM | O=C(N1CC[C@@H](Cn2cnc(-c3ccccc3)cc2=O)C2(CCCC2)C1)N1CC[C@@H](NCc2ccccn2)C[C@H]1c1ccccc1 [Example 144, 6-Phenyl-3-(((R)-7-((2S,4R)-2-phenyl-4-((pyridin-2-ylmethyl)amino)piperidine-1-carbonyl)-7-azaspiro[4.5]decan-10-yl)methyl)pyrimidin-4(3H)-one]
< 10 nM | CSc1ncc2c(=O)n(CC3CCN(C(=O)N4CC[C@@H](N)C[C@H]4c4ccccc4)CC34CCCC4)ccc2n1 (stereo partly drawn) [Example 40, 6-((7-((2S,4R)-4-Amino-2-phenylpiperidine-1-carbonyl)-7-azaspiro[4.5]decan-10-yl)methyl)-2-(methylthio)pyrido [4,3-d]pyrimidin-5(6H)-one]
< 10 nM | CC1(C)CN(C(=O)N2CC[C@@H](N)C[C@H]2c2ccccc2)CCC1Cn1cnc(-c2ccccc2)cc1=O (stereo partly drawn) [Example 19, 3-((1-((2S,4R)-4-Amino-2-phenylpiperidine-1-carbonyl)-3,3-dimethylpiperidin-4-yl)methyl)-6-phenylpyrimidin-4(3H)-one]
< 10 nM | CCN[C@@H]1CCN(C(=O)N2CC[C@@H](Cn3cnc4ccc(F)cc4c3=O)C3(CCCC3)C2)[C@H](c2cc(F)ccc2F)C1 [Example 162, 3-(((R)-7-((2S,4R)-2-(2,5-Difluorophenyl)-4-(ethylamino)piperidine-1-carbonyl)-7-azaspiro[4.5]decan-10-yl)methyl)-6-fluoroquinazolin-4(3H)-one]
